Results on one compound are retold here after patent US10676430B2, “Non-alpha substituted peroxy acids and uses thereof” (Stepan Company, priority 2016, dated 2020).

Series [1] concerns Pseudomonas aeruginosa (Pa, ATCC 15442). Description: Method A+: modified quantitative AOAC Use Dilution test. The note with it: 750 ppm, 1 minute, 400 ppm hard water, 5% organic matter. In kind it is cell-based. The protocol: (§1) In this Example, 3-HPPA was evaluated for biocidal efficacy against Sa, Pa, and Ec using three different test methods. PAA was also evaluated for biocidal efficacy for comparison. The test methods were performed using 400 ppm of hard water as diluent, in the presence of 5% organic matter.
(§2) Method A^+: modified quantitative AOAC Use Dilution test for Disinfectants (Official Methods of Analysis. Methods 955.15—Staphylococcus aureus. Method 964.02—Pseudomonas aeruginosa. Posted September 2013). The number of surviving organisms on each carrier was quantitatively determined after the indicated contact time. No growth observed on the solid recovery medium means no survivors present on the carriers after exposure to the antimicrobial composition. A kill rate of 99.9999% is equivalent to a 6 log kill.

The test system of series [2] is Staphylococcus aureus (Sa, ATCC 6538). The series is described as above. Format: cell-based. The note with it: 750 ppm, 1 minute, 400 ppm hard water, 5% organic matter. As to the method:
as §1, §2

A short description of series [3]: Peracid stability by standard titration method. Format: physicochemical. The source says: […] The H2O2 used is commercially available from Arkema under the tradename Perxoal 50EG and includes a small amount of stabilizer. The reaction proceeded until equilibrium was reached, in accordance with the reaction scheme recited above. The starting carboxylic acids were acetic acid, 3-hydroxy propanoic acid, 3-chloro-propanoic acid, 2-hydroxy-acetic acid (glycolic acid), 2-hydroxy-propanoic acid (lactic acid) and 2-oxo-propanoic acid. The 3-hydroxy propanoic acid and 3-chloro-propanoic acid generated non alpha-substituted peracids that are examples of the present technology. The other starting carboxylic acids generated peracids that are not within Formula 1 or Formula 2 and are comparative peracid examples.
Each of the resulting peracids were evaluated for odor. In addition, the resulting peracids were evaluated for stability using a standard titration method known to those skilled in the art.

Series [4] deals with Spores of Clostridium difficile (ATCC 43598). The series can be described thus: Quantitative Disk Carrier Test Method (QCT-2), EPA MB-31-03, sporicidal efficacy. In kind it is cell-based. As to conditions: water hardness 400 ppm. As to the method:
Different formulations containing 3-HPPA at different concentrations were prepared and evaluated for sporicidal efficacy against Cd. The 3-HPPA formulations were also compared to the sporicidal efficacy of different formulations containing peracetic acid (PAA). The test procedure for evaluating sporicidal efficacy was in accordance with the EPA test method in place in 2015: Quantitative Disk Carrier Test Method (QCT-2) Modified for Testing Antimicrobial Products Against Spores of Clostridium difficile (ATCC 43598) on Inanimate, Hard, Non-porous Surfaces (MB-31-03). This method mandates the presence of a high level of organic soil.

The test system of series [5] is Staphylococcus aureus (Sa, ATCC 6538). Description: Method A: AOAC Use Dilution test for Disinfectants (Method 955.15). In kind it is cell-based. The note with it: 1 minute. The protocol: as §1
(§3) Method A: AOAC Use Dilution test for Disinfectants (Official Methods of Analysis. Methods 955.15—Staphylococcus aureus. Method 964.02—Pseudomonas aeruginosa. Posted September 2013). Killing efficacy is a qualitative result, reported as number of tubes showing microbial growth and total number carriers tested.

In series [6] the test system is Pseudomonas aeruginosa (Pa, ATCC 15442). The series can be described thus: Method A: AOAC Use Dilution test for Disinfectants (Method 964.02). Format: cell-based. The note with it: 1 minute. The protocol: as §1, §3
Setting [7] is: reaction mixture 20.00% organic acid, 7.50% H2O2, 1.00% H2SO4, DI water.
Setting [8] is: 750 ppm, 400 ppm hard water, 5% organic matter.

Take `CC(=O)OO` [PAA, peracetic acid]: the “Efficacy (Method A+), kill rate” value in series [1] and in series [2] was >99.9999% in each case. The “Peracid at day 13” value in series [3] (0% H2SO4 (no acid catalyst), 17.00-20.00% organic acid, 7.8-8.5% H2O2) worked out at 1.44%; in series [3] (setting [7]) it was 2.270%. The compound also returned a Peracid loss/day in series [3] (1.00% H2SO4, between day 6 and day 13) of 0.131%. Moreover, in series [3] (setting [7]), the “Peracid at day 6” value is given as 2.290%. Besides, the Log10 reduction in series [4] (peracid active 1844 ppm, contact time 2 minute) is 4.76; in series [4] (peracid active 2500 ppm, contact time 4 minute), 4.37; in series [4] (peracid active 2500 ppm, contact time 4 minute, listed as PAA alone), <4.37; in series [4] (peracid active 5000 ppm, contact time 4 minute), 6.39. Further, the “Efficacy outcome, EPA UDT/MB-05-13 test method” value in series [5] (750 ppm active) and in series [6] (750 ppm active) was “efficacious” each time. The “Efficacy (Method A): tubes showing microbial growth / total carriers tested” value in series [5] (setting [8]) and in series [6] (setting [8]) was 0/20 each time.
